Values after ≈ are worked out from the molar mass of the structure shown. Where two headings read alike, the source gives them in different places.

Holding throughout (format): cell-based
In test [1] the test system is S. aureus Smith A9537. Briefly: M.I.C. by tube dilution, S. aureus Smith A9537. The note with it: for MIC: Staphylococcus aureus.
The test system of test [2] is Sal. enteritidis A9531. The experiment in a line: M.I.C. by tube dilution, Sal. enteritidis A9531. The note with it: for MIC: Salmonella enterica, ENTERITIDIS
Test [3] concerns D. pneumoniae A9585. The experiment in a line: M.I.C. by tube dilution, D. pneumoniae A9585. Conditions: for MIC: Streptococcus pneumoniae, A9585.
Test [4] concerns E. coli Juhl A15119. Briefly: M.I.C. by tube dilution, E. coli Juhl A15119. The note with it: for MIC: Escherichia coli, JUHLA15119.
For test [5], the system named is Pr. mirabilis A9900. Briefly: M.I.C. by tube dilution, Pr. mirabilis A9900. The note with it: Proteus mirabilis.
Test [6] concerns K. pneumoniae A15130. Briefly: M.I.C. by tube dilution, K. pneumoniae A15130. The note with it: Klebsiella pneumoniae.
Test [7] deals with S. aureus meth.-resist; A15097. The experiment in a line: M.I.C. by tube dilution, S. aureus meth.-resist A15097. Conditions: Staphylococcus aureus, at 10^-3 dil'n, overnight 37° C.
The test system of test [8] is S. aureus BX1633-2 A9606. Briefly: M.I.C. by tube dilution, S. aureus BX1633-2 A9606. The note with it: Staphylococcus aureus, overnight 37° C.
Test [9] relates to K. pneumoniae A9977. The experiment in a line: M.I.C. by tube dilution, K. pneumoniae A9977. The note with it: Klebsiella pneumoniae.
In test [10] the test system is Str. pyogenes A9604. The experiment in a line: M.I.C. by tube dilution, Str. pyogenes A9604. The note with it: Streptococcus pyogenes.
Test [11] relates to E. coli A9675. Briefly: M.I.C. by tube dilution, E. coli A9675. Conditions: Escherichia coli.
The subject of test [12] is Ser. marcescens A20019. The experiment in a line: M.I.C. by tube dilution, Ser. marcescens A20019. Conditions: Serratia marcescens.
In test [13] the test system is Pr. morganii A15153. The experiment in a line: M.I.C. by tube dilution, Pr. morganii A15153. The note with it: Morganella morganii.
Test [14] relates to Ps. aeruginosa A9843A. The experiment in a line: microbe, parasite or virus in culture. The note with it: Pseudomonas aeruginosa.
The mark [15] stands for this setting: SMITHA9537, Table 9, compound of Ex. No., serum and dilution not given, read-out: M.I.C. S. aureus A9537.
Where [16] appears, read: Table 9, compound of Ex. No., dilution not given, read-out: M.I.C. Sal. enteritidis A9531.
The mark [17] stands for this setting: Table 9, compound of Ex. No., serum not given, read-out: M.I.C. D. pneumoniae A9585.
Where [18] appears, read: Table 9, compound of Ex. No., dilution not given, read-out: M.I.C. E. coli A15119.
The mark [19] stands for this setting: at 10^-4 dilution, overnight 37° C., read-out: M.I.C.
Where [20] appears, read: +5% serum, 50% Nutrient Broth - 45% Antibiotic Assay Broth, overnight 37° C., read-out: M.I.C.
The mark [21] stands for this setting: Table 9, compound of Ex. No., dilution not given.

Regarding `CC1=C(C(=O)O)N2C(=O)[C@@H](NC(=O)CC#N)[C@H]2CO1` (relative stereo) [Example 36, 7β-[Cyanoacetamido]-3-methyl-Δ^3-0-2-isocephem-4-carboxylicacid], the MIC in test [1] (setting [15]) came out at 4 µg/mL (≈ 15.1 µM); in test [2] (setting [16]) it was 125 µg/mL (≈ 471 µM); in test [3] (setting [17]) it was 0.5 µg/mL (≈ 1.89 µM); in test [4] (setting [18]), 125 µg/mL (≈ 471 µM).

Regarding `COc1cccc(OC)c1C(=O)N[C@@H]1C(=O)N2C(C(=O)O)=C(C)OC[C@H]12` (relative stereo) [Example 26, 7β-(2,6-Dimethoxybenzamido)-3-methyl-Δ^3 -O-2-isocephem-4-carboxylic acid], the MIC is greater than 125 µg/mL in test [1] (setting [15]), 32 µg/mL (≈ 88.3 µM) in test [2] (setting [16]), 32 µg/mL (≈ 88.3 µM) in test [3] (setting [17]) and greater than 125 µg/mL in test [4] (setting [18]).

Turning to `N[C@@H](C(=O)N[C@@H]1C(=O)N2C(C(=O)O)=COC[C@H]12)c1ccccc1` [BC-L6, 7β-(D-α-aminophenylacetamido)-Δ^3 -O-2-isocephem-4-carboxylic acid], the MIC in test [5] is 125 µg/mL (≈ 394 µM); in [1] (SMITHA9537, +50% serum, at 10^-4 dilution, overnight 37° C., read-out: M.I.C.), 250 µg/mL (≈ 788 µM); in test [1] (SMITHA9537, at 10^-4 dilution, overnight 37° C.), 32 µg/mL (≈ 101 µM); in test [6], 125 µg/mL (≈ 394 µM); in test [2], 32 µg/mL (≈ 101 µM); in test [3], 16 µg/mL (≈ 50.4 µM). Further, the MIC is 125 µg/mL (≈ 394 µM) in [4]; greater than 500 µg/mL in test [7] (read-out: M.I.C.); 500 µg/mL (≈ 1580 µM) in test [8] (BX16332A9606, at 10^-2 dil'n, read-out: M.I.C.); 125 µg/mL (≈ 394 µM) in test [8] (BX16332A9606, at 10^-3 dil'n); 63 µg/mL (≈ 199 µM) in test [9] (setting [19]); 16 µg/mL (≈ 50.4 µM) in test [10]. The MIC is 250 µg/mL (≈ 788 µM) in test [11] (setting [19]), greater than 500 µg/mL in test [12] (setting [19]), greater than 500 µg/mL in test [13] (setting [19]) and greater than 500 µg/mL in test [14].

With `CCCCC(=O)NC1C(=O)N2C(C(=O)O)=C(C)OCC12` (stereo not drawn) [Example 29, 7β-Valeramido-3-methyl-Δ^3 -O-2-isocephem-4-carboxylic acid], the MIC in test [1] (setting [15]) is 125 µg/mL (≈ 443 µM); in [2] (setting [16]) it was greater than 125 µg/mL; in test [3] (setting [17]) it was 125 µg/mL (≈ 443 µM); in test [4] (setting [18]) it was greater than 125 µg/mL.

In the case of `O=C(COc1ccccc1)N[C@@H]1C(=O)N2C(C(=O)O)=COC[C@H]12` (relative stereo) [BC-L2, potassium 7 β-phenoxyacetamido-Δ^3 -O-2-isocephem-4-carboxylate], the MIC in test [5] (setting [19]) is 63 µg/mL; in [1] (SMITHA9537, +50% serum, at 10^-4 dilution, overnight 37° C.) it was 1 µg/mL; in [1] (SMITHA9537, at 10^-4 dilution, overnight 37° C., read-out: M.I.C.), 1.3 µg/mL; in test [6], greater than 125 µg/mL; in test [2], 16 µg/mL; in test [3] (setting [20]), 0.6 µg/mL. Moreover, the MIC in test [4] (setting [19]) was 63 µg/mL; in test [7] it was greater than 125 µg/mL; in test [8] (BX16332A9606, at 10^-2 dil'n), greater than 125 µg/mL; in [8] (BX16332A9606, at 10^-3 dil'n, read-out: M.I.C.) it was 2.5 µg/mL; in test [9], 32 µg/mL; in [10] (setting [20]), 0.6 µg/mL. Also, the MIC in [11], in test [12], in test [13] and in [14] was greater than 125 µg/mL throughout.

`CC1=C(C(=O)O)N2C(=O)[C@@H](NC(=O)C(C(=O)O)c3ccccc3)[C@H]2CO1` (stereo partly drawn) [Example 34, 7β-[α-carboxy-α-phenylacetamido]-3-methyl-Δ^3-0-2-isocephem-4-carboxylic acid]: the MIC in test [1] (setting [15]) was 16 µg/mL (≈ 44.4 µM); in test [2] (setting [16]), 32 µg/mL (≈ 88.8 µM); in test [3] (setting [17]) it was 4 µg/mL (≈ 11.1 µM); in test [4] (setting [18]) it was 125 µg/mL (≈ 347 µM).

As for `CC1=C(C(=O)O)N2C(=O)[C@@H](NC(=O)CNC(=N)Cc3ccccc3)[C@H]2CO1` (relative stereo) [Example 28, 7β-[N-(Phenylacetimidoyl)aminoacetamido]-3-methyl-Δ^3 -O-2-isocephem-4-carboxylic acid], the MIC is 4 µg/mL (≈ 10.7 µM) in test [1] (setting [15]), 125 µg/mL (≈ 336 µM) in [2] (setting [16]), 0.5 µg/mL (≈ 1.34 µM) in test [3] (setting [17]) and greater than 125 µg/mL in [4] (setting [18]).

For the molecule `CC1=C(C(=O)O)N2C(=O)[C@@H](NC(=O)NCOc3ccccc3)[C@H]2CO1` (relative stereo) [Example 31], the MIC in test [1] (setting [15]) is 32 µg/mL (≈ 92.1 µM); in test [2] (setting [16]), greater than 125 µg/mL; in test [3] (setting [17]), 16 µg/mL (≈ 46.1 µM); in [4] (setting [18]), greater than 125 µg/mL.

As for `CC1=C(C(=O)O)N2C(=O)C(NC(=O)Cn3ncnn3)C2CO1` (stereo not drawn) [Example 37, 7β-[2-(2H)-tetrazolylacetamido]-3-methyl-Δ^3-0-2-isocephem-4-carboxylic acid], the “M.I.C. S. aureus A9537” value in test [1] (Table 9, compound of Ex. No., serum and dilution not given) was greater than 125 µg/mL. Besides, the “M.I.C. Sal. enteritidis A9531” value in test [2] (setting [21]) is greater than 125 µg/mL. Besides, the “M.I.C. D. pneumoniae A9585” value in test [3] (Table 9, compound of Ex. No., serum not given) amounted to 125 µg/mL. In [4] (setting [21]), the “M.I.C. E. coli A15119” value is greater than 125 µg/mL.

On to `CC1=C(C(=O)O)N2C(=O)[C@@H](NC(=O)Cc3ccccc3O)[C@H]2CO1` (relative stereo) [Example 35, 7β-(o-Hydroxyphenylacetamido)-3-methyl-Δ^3-0-2-isocephem-4-carboxylic acid], for which the MIC in test [1] (setting [15]) was 0.5 µg/mL (≈ 1.5 µM); in test [2] (setting [16]), greater than 125 µg/mL; in test [3] (setting [17]) it was 0.25 µg/mL (≈ 0.752 µM); in test [4] (setting [18]), greater than 125 µg/mL.

For the molecule `CC1=C(C(=O)O)N2C(=O)[C@@H](NC(=O)[C@H](O)c3ccccc3)[C@H]2CO1` [Example 27, 7β-(D-α-Hydroxyphenylacetamido)-3-methyl-Δ^3 -O-2-isocephem-4-carboxylic acid], the MIC in [1] (setting [15]) stood at 2 µg/mL (≈ 6.02 µM); in [2] (setting [16]), 8 µg/mL (≈ 24.1 µM); in test [3] (setting [17]), 1 µg/mL (≈ 3.01 µM); in [4] (setting [18]), 16 µg/mL (≈ 48.1 µM).

`CC1=C(C(=O)O)N2C(=O)[C@@H](NC(=O)Cc3ccccc3CN)[C@H]2CO1` (relative stereo) [Example 24, 7β-(2-Aminomethylphenylacetamido)-3-methyl-Δ^3 -O-2-isocephem-4-carboxylic acid]: the MIC in test [1] (setting [15]) is 0.6 µg/mL (≈ 1.74 µM); in test [2] (setting [16]) it was greater than 2.5 µg/mL; in [3] (setting [17]), 0.08 µg/mL (≈ 0.232 µM); in test [4] (setting [18]), 16 µg/mL (≈ 46.3 µM).

`CCOC(=O)NC1C(=O)N2C(C(=O)O)=C(C)OCC12` (stereo not drawn) [Example 38, 7β-(Ethoxycarboxamido)-3-methyl-Δ^3-0-2-isocephem-4-carboxylic acid]: the MIC was 125 µg/mL (≈ 463 µM) in test [1] (setting [15]), greater than 125 µg/mL in [2] (setting [16]), 32 µg/mL (≈ 118 µM) in test [3] (setting [17]) and greater than 125 µg/mL in test [4] (setting [18]).

`CC1=C(C(=O)O)N2C(=O)[C@@H](NC(=O)Cc3cccs3)[C@H]2CO1` (relative stereo) [Example 33, 7β-(2-Thienylacetamido)-3-methyl-Δ^3-0-2-isocephem-4-carboxylic acid]: the MIC in test [1] (setting [15]) was determined as 1 µg/mL (≈ 3.1 µM); in [2] (setting [16]), 2 µg/mL (≈ 6.2 µM); in [3] (setting [17]) it was 0.25 µg/mL (≈ 0.776 µM); in [4] (setting [18]), 32 µg/mL (≈ 99.3 µM).

On to `CC1=C(C(=O)O)N2C(=O)[C@@H](NC(=O)c3c(-c4ccccc4Cl)noc3C)[C@H]2CO1` (relative stereo) [Example 39, 7β-[3-(o-chlorophenyl)-5-methyl-isoxazol-4-ylcarboxamido]-3-methyl-Δ^3-0-2-isocephem-4-carboxylic acid], for which the MIC is greater than 8 µg/mL in [1] (setting [15]), greater than 125 µg/mL in test [2] (setting [16]), 8 µg/mL (≈ 19.1 µM) in test [3] (setting [17]) and greater than 125 µg/mL in test [4] (setting [18]).

With `CC1=C(C(=O)O)N2C(=O)[C@@H](NC(=O)Cc3ccccc3)[C@H]2CO1` (relative stereo) [Example 32, 7β-Phenylacetamido-3-methyl-Δ^3-0-2-isocephem-4-carboxylic acid], the MIC is 1 µg/mL (≈ 3.16 µM) in test [1] (setting [15]), 4 µg/mL (≈ 12.6 µM) in test [2] (setting [16]), 0.5 µg/mL (≈ 1.58 µM) in test [3] (setting [17]) and 125 µg/mL (≈ 395 µM) in test [4] (setting [18]).

As for `CC1=C(C(=O)O)N2C(=O)[C@@H](NC(=O)C(NC(=O)NC(=O)c3ccccc3)c3ccccc3)[C@H]2CO1` (stereo partly drawn) [Example 25, 7β-(α-Benzoylureidophenylacetamido)-3-methyl-Δ^3 -O-2-isocephem-4-carboxylic acid], the MIC in [1] (setting [15]) amounted to 0.6 µg/mL (≈ 1.25 µM); in [2] (setting [16]), 8 µg/mL (≈ 16.7 µM); in [3] (setting [17]) it was 0.3 µg/mL (≈ 0.627 µM); in [4] (setting [18]) it was 63 µg/mL (≈ 132 µM).
